Measured values taken from patent US20040034102A1, “Oral pediatric trimethobenzamide formulations and methods” (King Pharmaceuticals, Inc., priority 2002, published 2004).
Where two headings read alike, the source gives them in different places.

How the values were obtained:
[1] = Safety assessment in the crossover study (adverse events, laboratory tests); type: in vivo, human; as to DIARRHEA (treatment emergent AE): test concentration or dose not given here; as to ERYTHEMA, PALMAR (treatment emergent AE): test concentration or dose not given here
Text: Seventy-four healthy, non-smoking, male & female subjects, 18-65 years old were enrolled in this study. A total of 68 subjects completed all the requirements of the protocol. There were no enrollment violations. However, nine of the 74 subjects began the study during the third period of the initial group of subjects. All 74 subjects who received at least one dose of study medication were included in the safety analysis.
This study was a single center, randomized, open-label, 4-way crossover study in healthy subjects. Dosing was administered in the fasted state. Seventy-four (74) subjects were randomized into the study. All seventy-four subjects received one or more doses of study medication and are therefore included in the safety assessment. On Treatment Day 1 of the first treatment period, each subject was randomized to receive one of four possible study treatment sequences. The treatment groups consisted of the four treatments administered sequentially as DCAB, ADBC, BACD or CBDA. These treatments are shown below.
A signed informed consent was obtained from each subject. For screening purposes, the following procedures were required of each subject and were performed by the clinical site within 30 days prior to the study: a complete physical examination including a medical history, vital signs, clinical laboratory safety tests on blood and urine, medications taken prior to and during the study, and a serum pregnancy test for female subjects.
During the treatments, temperature, blood pressure, heart rate and respiratory rate were monitored as a safety measure. A physical examination and clinical laboratory tests were repeated at the completion of the study. Subjects were observed and questioned throughout the study for the occurrence of any adverse events.

[2] = FDA notice; cited from earlier work
[3] = cited from earlier work
[4] = 74 subjects, all 4 treatment periods

## N-[2-(dimethylamino)-ethoxy]-3,4,5trimethoxybenzamide hydrochloride [trimethobenzamide hydrochloride]
[1]; 5 percent prior to treatment
  subjects with decreased red blood cell count at the end of treatment: 11%
[1]; 8 percent prior to treatment
  subjects with low hematocrit at the end of treatment: 34%
[1]; [4]
  adverse events (AEs) experienced, total: 28
  treatment emergent AEs: 27
[1]; all mild to moderate
  AEs assessed as related to study treatment: 21
[1]; end of treatment vs prior
  hematocrit mean change: 2.3%
  hemoglobin mean change: 0.6 g/dL
  red blood cell count mean change: 2e+11 L⁻¹
[1]; in vivo
  overall safety and tolerability: safe and well tolerated
  serious AEs: no serious AEs
[1]; no clinical significance
  subjects with normal hemoglobin prior to treatment who had low hemoglobin at the end of treatment: 13%
[1]; number of events
  dizziness: 3
  neurologic complaints: 15
  paresthesias: 3
[1]; number of events, in a total of 7 subjects
  headaches: 8
[1]; of 6 withdrawn
  subjects prematurely withdrawn due to adverse events: 4
[1]; of the 72 samples drawn at the end of the study, due to hemolyzed specimens
  samples with hyperkalemia: 55
[1]; sequence A D B C (N = 20)
  ABDOMINAL PAIN (treatment emergent AE): 5.0%
  CONJUNCTIVITIS (treatment emergent AE): 5.0%
  DIARRHEA (treatment emergent AE): 0.0%
  DIZZINESS (treatment emergent AE): 15.0%
  EDEMA, PALMAR (treatment emergent AE): 5.0%
  ERYTHEMA, EXTERNAL NOSE (treatment emergent AE): 0.0%
  ERYTHEMA, PALMAR (treatment emergent AE): 5.0%
  HEADACHE (treatment emergent AE): 5.0%
  HYPOTONIA (treatment emergent AE): 0.0%
  INJECTION SITE REACTION (treatment emergent AE): 0.0%
  LEG CRAMPS (treatment emergent AE): 0.0%
  NAUSEA (treatment emergent AE): 5.0%
  NAUSEA AND VOMITING (treatment emergent AE): 5.0%
  Number of Subject With At Least one AE: 25.0%
  Number of Subject With No AE: 75.0%
  PARESTHESIA (treatment emergent AE): 0.0%
  PHARYNGITIS (treatment emergent AE): 0.0%
  RASH (treatment emergent AE): 0.0%
  […] (treatment emergent AE): 0.0%
[1]; sequence B A C D (N = 18)
  ABDOMINAL PAIN (treatment emergent AE): 0.0%
  CONJUNCTIVITIS (treatment emergent AE): 0.0%
  DIARRHEA (treatment emergent AE): 0.0%
  DIZZINESS (treatment emergent AE): 0.0%
  EDEMA, PALMAR (treatment emergent AE): 0.0%
  ERYTHEMA, EXTERNAL NOSE (treatment emergent AE): 0.0%
  ERYTHEMA, PALMAR (treatment emergent AE): 0.0%
  HEADACHE (treatment emergent AE): 0.0%
  HYPOTONIA (treatment emergent AE): 0.0%
  INJECTION SITE REACTION (treatment emergent AE): 5.6%
  LEG CRAMPS (treatment emergent AE): 0.0%
  NAUSEA (treatment emergent AE): 0.0%
  NAUSEA AND VOMITING (treatment emergent AE): 0.0%
  Number of Subject With At Least one AE: 22.2%
  Number of Subject With No AE: 77.8%
  PARESTHESIA (treatment emergent AE): 11.1%
  PHARYNGITIS (treatment emergent AE): 0.0%
  RASH (treatment emergent AE): 5.6%
  […] (treatment emergent AE): 5.6%
[1]; sequence C B D A (N = 18)
  ABDOMINAL PAIN (treatment emergent AE): 0.0%
  CONJUNCTIVITIS (treatment emergent AE): 0.0%
  DIARRHEA (treatment emergent AE): 5.6%
  DIZZINESS (treatment emergent AE): 0.0%
  EDEMA, PALMAR (treatment emergent AE): 0.0%
  ERYTHEMA, EXTERNAL NOSE (treatment emergent AE): 5.6%
  ERYTHEMA, PALMAR (treatment emergent AE): 0.0%
  HEADACHE (treatment emergent AE): 16.7%
  HYPOTONIA (treatment emergent AE): 5.6%
  INJECTION SITE REACTION (treatment emergent AE): 0.0%
  LEG CRAMPS (treatment emergent AE): 0.0%
  NAUSEA (treatment emergent AE): 0.0%
  NAUSEA AND VOMITING (treatment emergent AE): 0.0%
  Number of Subject With At Least one AE: 22.2%
  Number of Subject With No AE: 77.8%
  PARESTHESIA (treatment emergent AE): 0.0%
  PHARYNGITIS (treatment emergent AE): 0.0%
  RASH (treatment emergent AE): 0.0%
  […] (treatment emergent AE): 0.0%
[1]; sequence D C A B (N = 18)
  ABDOMINAL PAIN (treatment emergent AE): 0.0%
  CONJUNCTIVITIS (treatment emergent AE): 0.0%
  DIARRHEA (treatment emergent AE): 0.0%
  DIZZINESS (treatment emergent AE): 0.0%
  EDEMA, PALMAR (treatment emergent AE): 0.0%
  ERYTHEMA, EXTERNAL NOSE (treatment emergent AE): 0.0%
  ERYTHEMA, PALMAR (treatment emergent AE): 0.0%
  HEADACHE (treatment emergent AE): 16.7%
  HYPOTONIA (treatment emergent AE): 0.0%
  INJECTION SITE REACTION (treatment emergent AE): 0.0%
  LEG CRAMPS (treatment emergent AE): 5.6%
  NAUSEA (treatment emergent AE): 0.0%
  NAUSEA AND VOMITING (treatment emergent AE): 0.0%
  Number of Subject With At Least one AE: 27.8%
  Number of Subject With No AE: 72.2%
  PARESTHESIA (treatment emergent AE): 5.6%
  PHARYNGITIS (treatment emergent AE): 0.0%
  RASH (treatment emergent AE): 0.0%
  […] (treatment emergent AE): 0.0%
[1]; severe pharyngitis, judged unrelated to study treatment
  severe AEs: 1
[2]
  plasma levels of an oral dose of 400 milligrams vs a 200-milligram intramuscular dose: APP[…]
  systemic bioavailability of orally administered drug, of the bioavailability of intramuscularly administered drug: about 60%
[3]; IM
  DURATION: 2 to 3 h
  ONSET: 15 to 35 min
[3]; PO
  DURATION: 3 to 4 h
  ONSET: 10 to 40 min
[3]; Rect
  DURATION: 3 to 4 h
  ONSET: 10 to 40 min
